Earlier results, collected in patent US11094527B2, “Wet clean solutions to prevent pattern collapse” (INTERNATIONAL BUSINESS MACHINES CORPORATION, priority 2018, dated 2021).
Like-named read-outs stand apart in the source and are kept apart here.

Assays:
[1] = not given; remark: listed apart in the source

Water solubility ([1]; temperature not given)	Molecule	Surface tension (at about 20° C.) [mN/m]	Water solubility (in words) [1]	Water solubility ([1]; 20° C.) [g/100 mL]
–	c1ccccc1 [Benzene]	<30	–	–
Miscible	CC(C)O [Isopropyl alcohol, reference compound]	<30	miscible in water	–
–	Diethyl ether	16.5	low water solubility	6.9
